Read-outs that look alike come from different tables or passages of the source.
Tested on: HIV (LAV 1)
Experiment: microbe, parasite or virus in culture
Conditions: for Viable cell count / Viral antigen-positive cell percentage: 4-day addition; for viability at 1 µg/mL / viability at 10 µg/mL: Human immunodeficiency virus 1, CCRF-CEM
Procedure: Human T cell-derived, T4 antigen-positive CEM cells (provided by the Institut Pasteur, France) were used as host cells of HIV. Cell culture was carried out in a carbon dioxide-containing atmosphere in an incubator maintained at 37°C according to a conventional method [cf. […] The culture supernatant (5×10⁶ TCID₅₀/ml) obtained by subjecting CEM cells to HIV (LAV 1) infection and stored at -70°C was used as the HIV source.
The medium for cell culture (10 ml) placed in a plastic culture flask (25 cm²) was inoculated with CEM cells at a cell density of 2.5×10⁵ cells/ml. After 3 days of incubation, the culture was transferred to a 15-ml centrifuge tube and subjected to centrifugation at 1,000 revolutions per minute for 5 minutes for sedimentation of cells and removal of the culture medium.
The stock viral suspension was added to the host cells thus prepared to an MOI of 0.05 and the mixture was maintained at 37°C for 90 minutes with stirring at 30-minute intervals for viral adsorption. The medium was added to HIV-infected cells to a cell density of 5.0×10⁵ cells/ml to give an HIV-infected cell suspension.
A mixture (1.0 ml) of the three constituents mentioned below was added to each well of a 24-well plastic culture plate and the test substance final concentration was adjusted to 10 mcg/ml, 5 mcg/ml, 2.5 mcg/ml or 1 mcg/ml. The "no addition" wells (0 mcg/ml) served as controls.
After 4 days of incubation following viral infection, the cells in each well on the 24-well culture plate were suspended uniformly by pipetting and a 0.5-ml portion of the suspension was separated. A 2.0-ml portion of test substance-free fresh medium was added to the remaining 0.5-ml portion of the cell suspension, followed by incubation.
Seven days after viral infection, pipetting was performed to give a uniform cell suspension in each well and a 0.5-ml portion of the suspension was separated.
Incubation was continued and, 10 days after viral infection, a uniform cell suspension was produced in the same manner in each well and a 1.5-ml portion thereof was separated. A fresh 2.0-ml portion of the medium free of (or containing) the test substance was added to the well, followed by further incubation.
Fifteen days after viral infection, the cells in each well were suspended uniformly in the same manner in the medium and a 2.0-ml portion of the suspension was separated. A fresh 2.0-ml portion of the medium free of (or containing) the test substance was added to the remaining 0.5 ml of the cell suspension and incubation was continued.
Medium exchange was performed in the same manner 20 days and 25 days after viral infection.
The cell suspensions collected 4 days, 7 days, 10 days, 20 days and 30 days after viral infection were tested for viable cell count and viable cell percentage by trypan blue staining. At the same time, viral antigen-positive cell percentage determination was carried out by immunofluorescence using an anti-HIV antiserum isolated from a healthy carrier of HIV.
The numerical values given each is the mean for the respective two wells on the culture plate. The viable cell count is the total cell count minus the count of dead cells stained with trypan blue. The viable cell percentage is the percentage of viable cells among all the cells including dead cells. The viral antigen-positive cell percentage is the percentage of cells indicating antigen expression as found among all the cells including dead cells.

[1] = 96 h, read-out: Viable cell percentage, 1 mcg/ml, 4-day addition, after 4 days
[2] = 96 h, read-out: Viable cell percentage, 10 mcg/ml, 4-day addition, after 4 days
[3] = read-out: Viable cell percentage, 1 mcg/ml, 4-day addition, after 7 days
[4] = read-out: Viable cell percentage, 1 mcg/ml, 4-day addition, after 10 days
[5] = read-out: Viable cell percentage, 1 mcg/ml, 4-day addition, after 20 days
[6] = read-out: Viable cell percentage, 1 mcg/ml, 4-day addition, after 30 days
[7] = read-out: Viable cell percentage, 10 mcg/ml, 4-day addition, after 7 days
[8] = read-out: Viable cell percentage, 10 mcg/ml, 4-day addition, after 10 days
[9] = read-out: Viable cell percentage, 10 mcg/ml, 4-day addition, after 20 days
[10] = read-out: Viable cell percentage, 10 mcg/ml, 4-day addition, after 30 days

Row | Compound | Viable cell count (1 mcg/ml, after 4 days) [× 10⁴ cells/ml] | Viral antigen-positive cell percentage (1 mcg/ml, after 4 days) [%] | Viable cell count (1 mcg/ml, after 7 days) [× 10⁴ cells/ml] | Viral antigen-positive cell percentage (1 mcg/ml, after 7 days) [%] | Viable cell count (1 mcg/ml, after 10 days) [× 10⁴ cells/ml] | Viable cell count (1 mcg/ml, after 20 days) [× 10⁴ cells/ml] | Viable cell count (1 mcg/ml, after 30 days) [× 10⁴ cells/ml] | Viable cell count (10 mcg/ml, after 4 days) [× 10⁴ cells/ml] | Viral antigen-positive cell percentage (10 mcg/ml, after 4 days) [%] | Viable cell count (10 mcg/ml, after 7 days) [× 10⁴ cells/ml] | Viral antigen-positive cell percentage (10 mcg/ml, after 7 days) [%] | Viable cell count (10 mcg/ml, after 10 days) [× 10⁴ cells/ml] | Viral antigen-positive cell percentage (10 mcg/ml, after 10 days) [%] | Viable cell count (10 mcg/ml, after 20 days) [× 10⁴ cells/ml] | Viral antigen-positive cell percentage (10 mcg/ml, after 20 days) [%] | Viable cell count (10 mcg/ml, after 30 days) [× 10⁴ cells/ml] | Viral antigen-positive cell percentage (10 mcg/ml, after 30 days) [%] | viability at 1 µg/mL [1] [%] | viability at 10 µg/mL [2] [%] | viability at 1 µg/mL [3] [%] | other results
1 | CCCN1CCN(c2c(F)cc3c(=O)c(C(=O)O)cn4c3c2OCC4C)CC1 (racemic) [IIIb, (±)-9-Fluoro-3-methyl-10-(4-n-propyl-1-piperazinyl)-7-oxo-2,3-dihydro-7H-pyrido[1,2,3-de][1,4]benzoxazine-6-carboxylic acid] | 220 | 88 | 53 | 62 | 19 | 25 | 14 | 190 | 80 | 62 | 50 | 240 | 40 | 320 | 13 | 300 | 4 | 89 | 89 | 75 | viability at 1 µg/mL [4]: 27%; viability at 1 µg/mL [5]: 81%; viability at 1 µg/mL [6]: 36%; viability at 10 µg/mL [7]: 70%; viability at 10 µg/mL [8]: 83%; viability at 10 µg/mL [9]: 92%; viability at 10 µg/mL [10]: 94%
2 | CCN1CCN(c2c(F)cc3c(=O)c(C(=O)O)cn4c3c2OCC4C)CC1 (racemic) [IIIa, (±)-9-Fluoro-3-methyl-10-(4-ethyl-1-piperazinyl)-7-oxo-2,3-dihydro-7H-pyrido[1,2,3-de][1,4]benzoxazine-6-carboxylic acid] | 240 | 72 | 37 | 65 | 19 | 20 | 14 | 180 | 82 | 61 | 75 | 260 | 26 | 310 | 18 | 330 | 6 | 92 | 88 | 57 | Viral antigen-positive cell percentage (1 mcg/ml, after 10 days): 30%; Viral antigen-positive cell percentage (1 mcg/ml, after 20 days): 20%; viability at 1 µg/mL [4]: 30%; viability at 1 µg/mL [5]: 78%; viability at 1 µg/mL [6]: 40%; viability at 10 µg/mL [7]: 74%; viability at 10 µg/mL [8]: 93%; viability at 10 µg/mL [9]: 91%; viability at 10 µg/mL [10]: 94%
3 | CC(C)N1CCN(c2c(F)cc3c(=O)c(C(=O)O)cn4c3c2OCC4C)CC1 (racemic) [IIId, (±)-9-Fluoro-3-methyl-10-(4-isopropyl-1-piperazinyl)-7-oxo-2,3-dihydro-7H-pyrido[1,2,3-de][1,4]benzoxazine-6-carboxylic acid] | 250 | 72 | 50 | 70 | 24 | 12 | 9 | 190 | 78 | 60 | 50 | 280 | 25 | 290 | 11 | 300 | 4 | 91 | 88 | 62 | viability at 1 µg/mL [4]: 28%; viability at 1 µg/mL [5]: 60%; viability at 1 µg/mL [6]: 31%; viability at 10 µg/mL [7]: 67%; viability at 10 µg/mL [8]: 91%; viability at 10 µg/mL [9]: 95%; viability at 10 µg/mL [10]: 94%
4 | CCCCN1CCN(c2c(F)cc3c(=O)c(C(=O)O)cn4c3c2OCC4C)CC1 (racemic) [IIIc, (±)-9-Fluoro-3-methyl-10-(4-n-butyl-1-piperazinyl)-7-oxo-2,3-dihydro-7H-pyrido[1,2,3-de][1,4]benzoxazine-6-carboxylic acid] | 220 | 82 | 46 | 70 | 28 | 10 | 10 | 200 | 80 | 51 | 47 | 250 | 9 | 340 | 9 | 320 | 3 | 87 | 92 | 60 | viability at 1 µg/mL [4]: 33%; viability at 1 µg/mL [5]: 55%; viability at 1 µg/mL [6]: 32%; viability at 10 µg/mL [7]: 67%; viability at 10 µg/mL [8]: 93%; viability at 10 µg/mL [9]: 93%; viability at 10 µg/mL [10]: 95%

From EP0394553A2, “Use of fluorine containing pyridone carboxylic acid derivatives for preparing a medicament for the treatment of HIV infections” (DAIICHI PHARMACEUTICAL CO., LTD., priority 1989, dated 1990)
